For experiment [1], the system named is HIV-1 strain SF-162. Description: Acute infectivity assay in PHA-activated donor lymphocytes, isolate SF162. It counts as cell-based. The conditions noted are these: Human immunodeficiency virus 1, Lymphocyte. How it is done: (§1) Approximately 3×10^7 cells are activated for 48 hours with about 3-5 μg/ml PHA in RPMI continuing 10% fetal bovine serum and IL-2 (10 U/ml). Quantitated virus stocks are added to the activated lymphocyte suspension at a multiplicity of infection of about 0.001-0.01. The cell-virus suspension is incubated at 37° C. for 2 hours to allow virus absorption. The residual virus inoculum is removed by centrifugation and the cells are resuspended in RPMI containing 10% FBS and 10 U/ml IL-2. These infected cells are added to the test-article diluted in complete tissue culture medium from a stock (10 mg/ml) in DMSO in 96 well microtiter plates to give about 5×10^5 cells per well per 200 μl. Infected, untreated cells and cells treated with DMSO alone (0.1%) or either AZT or DDI were used as controls. The cultures were examined for syncytia formation on days 7 and 11 post-infection or the supernants tested for reverse transcriptase activity or p24 antigen.
(§2) RF represents the HIV-1 strain HIV-LRF and RFR represents a mixture of resistant strains obtained by selection of RF against the compound of Example 1. RFR comprises a mixture of viral strains having protease genotypes of G48V (14/40 clones); G48V, V82A (18/40 clones); G48V, L90S (2/40 clones); G48V, 154T, V82A (1/40 clones); G48M (1/40 clones); G48V, Q61H (1/40 clones); V13I, G48V (1/40 clones); G48V, F53L, V82A (1/40 clones); and G48V, V82A, C95Y (1/40 clones). RFR2 represents a mixture of resistant strains obtained by cloning RFR by three rounds of growth at limiting dilution. RFR2 comprises a mixture of viral strains having protease genotypes of G48V, V82A (13/15 clones); G17E, G48V, V82A (1/15 clones); and G48V, V82A, N37D, N88D (1/15 clones). RFRR represents a mixture of resistant strains obtained by selection of RF against the compounds of Examples 1 and 2 and then cloning by three rounds of growth at limiting dilution. RFRR comprises a mixture of viral strains having protease genotypes of G48V, 154T, L63P, V82A (7/9 clones); G48V, 154T, L63P, V82A, N88S (1/9 clones); and G48V, 154T, L63P, G73M, V82A (1/9 clones). SF162 represents the HIV-1 strain SF-162 and SF162R represents a mixture of resistant strains obtained by selection of SF162 against the compound of Example 1. SF162R comprises a mixture of viral strains having protease genotypes of M461, F53L, L63P, A71V, N88D (2/3 clones); and M46I, F53L, L63P, A71V, N88D, Q92R (1/3 clones). 89-959 represents the HIV-1 strain 89-959 and 89-959R represents a mixture of resistant strains obtained by selection of 89-959 against the compound of Example 2. 89-959R comprises a mixture of viral strains having protease genotypes of N88S (4/5 clones); and D25N, T26A, D30N, D37N, R41K, G73D, R87K, N88S (1/4 clones). NL4 represents the HIV-1 strain HIV-1NL4-3. NL4(G48V) represents a strain having a synthetically generated site-directed mutation in the protease from glycine to valine at amino acid position number 48. NL4(I84V) represents a strain having a synthetically generated site-directed mutation in the protease from isoleucine to valine at amino acid position number 84. NL4(R8Q,M46I) represents a strain having synthetically generated site-directed mutations in the protease from arginine to glutamine at amino acid position number 8 and methionine to isoleucine at amino acid position number 46. NL4(P22-538) represents a mixture of resistant strains obtained by selection of HIV-1NL4-3 against the compound of Example 10 after 22 passages comprising protease genotypes M46I, L63P, A71V, V82F, I84V (4/10); M46I, L63P, V82F, I84V (3/10); and M46I, A71V, V82F, I84V (3/10). NL4(P37-538) represents resistant strains obtained by selection of HIV-1NL4-3 against the compound of Example 10 after 37 passages comprising protease genotype M46I, L63P, A71V, 184A. NL4(538/524) represents resistant strains obtained by selection of NL4(P22-538) against the compound of Example 5 after 24 passages comprising protease genotype M46I, L63P, A71V, 184A. […]

Experiment [2] concerns 89-959R (resistant strains selected from 89-959 against Example 2). Description: Acute infectivity assay in PHA-activated donor lymphocytes, resistant isolate 89-959R. It counts as cell-based, HIV-1. Particulars: Human immunodeficiency virus 1, Lymphocyte, read-out: Virus Isolate (EC50 ng/mL) 89-959R. Here is the method:
as §1, §2

Where [3] appears, read: Table 1, read-out: Virus Isolate (EC50 ng/mL) SF162.
[4] abbreviates: Table 2, read-out: Virus Isolate (EC50 ng/mL) SF162.

Molecules are shown by their SMILES. Converted amounts (≈) assume the structure as drawn. Where two headings read alike, the source gives them in different places.

The values below come from patent US20030207813A1, “Retroviral protease inhibitor combinations” (priority 1995, published 2003).

`CC(C)CN(C[C@@H](O)[C@H](Cc1ccccc1)NC(=O)[C@H](CC(N)=O)NC(=O)c1ccc2ccccc2n1)C(=O)NC(C)(C)C` (relative stereo) [Example 1, [1S-[1R*(R*),2S*]]-N^1-[3-[[[(1,1-dimethylethyl)amino]carbonyl])2-methylpropyl)amino]-2-hydroxy-1-(phenylmethyl)propyl]-2-[(2-quinolinylcarbonyl)amino]-butanediamide]: the EC50 in experiment [1] (setting [3]) is 31 ng/mL (≈ 51.3 nM); in experiment [1] (setting [4]), 2 ng/mL (≈ 3.31 nM); in experiment [2] (Table 3, (experiment ‡)), 37 ng/mL (≈ 61.2 nM); in experiment [2] (Table 3, experiments † and §) it was 5 ng/mL (≈ 8.27 nM).
In the case of `CC(C)CCN(C[C@@H](O)[C@H](Cc1ccccc1)NC(=O)[C@H](CC(N)=O)NC(=O)c1ccc2ccccc2n1)C(=O)NC(C)(C)C` (relative stereo) [Example 7, [1S-[1R*(R*),2S*]]-N^1-[3-[[[(1,1-dimethylethyl)amino]carbonyl](3-methylbutyl)amino]-2-hydroxy-1-(phenylmethyl)propyl]-2-[(2-quinolinylcarbonyl)amino]-butanediamide], the EC50 turned out to be 1 ng/mL (≈ 1.62 nM) in experiment [1] (setting [4]); 12 ng/mL (≈ 19.4 nM) in experiment [2] (Table 3, experiments † and §).
With `CC(C)(C)NC(=O)[C@@H]1CC2CCCC[C@@H]2CN1C[C@@H](O)[C@H](Cc1ccccc1)NC(=O)[C@H](CC(N)=O)NC(=O)c1ccc2ccccc2n1` (stereo in doubt) [Example 6, N-tert-Butyl decahydro-2-[2(R)-hydroxy-4-phenyl-3(S)-[[N-(2-quinolylcarbonyl)-L-asparaginyl]amino]butyl]-(4aR,8aS)-isoquinoline-3(S)-carboxamide], the EC50 in experiment [1] (setting [3]) was 2 ng/mL (≈ 2.98 nM); in experiment [2] (Table 3, (experiment ‡)) it was 6 ng/mL (≈ 8.94 nM).
Take `CNCC(=O)N[C@H](C(=O)N[C@@H](Cc1ccccc1)[C@H](O)CN(CCC(C)C)C(=O)NC(C)(C)C)C(C)(C)C` [Example 2, (2R,3S)-3-(N-methylaminoacetyl-L-tert-butylglycinyl)amino-1-(N-isoamyl-N-(tert-butylcarbamoyl))amino-4-phenyl-2-butanol]: the EC50 came out at 2 ng/mL (≈ 3.75 nM) in experiment [1] (setting [3]); 872 ng/mL (≈ 1630 nM) in experiment [2] (Table 3, (experiment ‡)); 395 ng/mL (≈ 740 nM) in experiment [2] (Table 3, experiments † and §).
In the same order, the values of `CC(C)(C)NC(=O)[C@@H]1CN(Cc2cccnc2)CCN1C[C@@H](O)C[C@@H](Cc1ccccc1)C(=O)N[C@H]1c2ccccc2C[C@H]1O` [Example 5, N-(2(R)-Hydroxy-1(S)-indanyl)-2(R)-phenylmethyl-4(S)-hydroxy-5-(1-(4-(3-pyridylmethyl)-2(S)-N′-(t-butylcarboxamido)-piperazinyl))-pentaneamide] are 4 ng/mL (≈ 6.52 nM), 38 ng/mL (≈ 61.9 nM) and 5 ng/mL (≈ 8.15 nM).
With `CC(C)CN(C[C@@H](O)[C@H](Cc1ccccc1)NC(=O)[C@H](CC(N)=O)NC(=O)c1ccc2ccccc2n1)S(=O)(=O)NC(C)(C)C` [Example 8, N-[3-[N^2-[N^1-(1,1-dimethylethyl)aminosulfonyl]-N^2-(2-methylpropyl)amino]-2R-hydroxy-1S-(phenylmethyl)propyl]-2S-[(2-quinolinylcarbonyl)amino]butanediamide], the EC50 came out at 1 ng/mL (≈ 1.56 nM) in experiment [1] (setting [4]); 11 ng/mL (≈ 17.2 nM) in experiment [2] (Table 3, experiments † and §).
